Assay results from the supplement of paper PMC10307832.

What was measured:
Experiment in all cases: relative viability (nuclei count vs DMSO), 5 days (fraction); higher = more cells survive
Apatinib + Vorinostat = compound: N#CC1(c2ccc(NC(=O)c3cccnc3NCc3ccncc3)cc2)CCCC1 [Apatinib] + O=C(CCCCCCC(=O)Nc1ccccc1)NO [Vorinostat] (partner 1 µM)
Method in brief: (§1)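 Values are medians from duplicate plates. Each reflects relative viability, defined as the nuclei count of treated wells over that of vehicle wells. Lung cancer cell lines in 1536-well plates were pin-tool dosed one day after seeding with one drug alone or with a fixed anchor-drug dose plus five library-drug doses (not always all listed) in √10 steps, then fixed, stained and imaged at 4× after 5 days.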

Apatinib + Decitabine = compound: N#CC1(c2ccc(NC(=O)c3cccnc3NCc3ccncc3)cc2)CCCC1 [Apatinib] + Nc1ncn([C@H]2C[C@H](O)[C@@H](CO)O2)c(=O)n1 [Decitabine] (partner 2 µM)
Method in brief: as §1

Metformin + Vorinostat = compound: CN(C)C(=N)NC(=N)N [Metformin] + O=C(CCCCCCC(=O)Nc1ccccc1)NO [Vorinostat] (partner 1 µM)
Method in brief: as §1

Apatinib + Dasatinib = compound: N#CC1(c2ccc(NC(=O)c3cccnc3NCc3ccncc3)cc2)CCCC1 [Apatinib] + Cc1nc(Nc2ncc(C(=O)Nc3c(C)cccc3Cl)s2)cc(N2CCN(CCO)CC2)n1 [Dasatinib] (partner 0.075 µM)
Method in brief: as §1

Cell Line | relative viability (Apatinib + Vorinostat; first compound 0.08 µM) | relative viability (Apatinib + Vorinostat; first compound 0.253 µM) | relative viability (Apatinib + Vorinostat; first compound 0.8 µM) | relative viability (Apatinib + Vorinostat; first compound 2.53 µM) | relative viability (Apatinib + Vorinostat; first compound 8 µM) | relative viability (Apatinib + Decitabine; first compound 0.08 µM) | relative viability (Apatinib + Decitabine; first compound 0.253 µM) | relative viability (Apatinib + Decitabine; first compound 0.8 µM) | relative viability (Apatinib + Decitabine; first compound 2.53 µM) | relative viability (Apatinib + Decitabine; first compound 8 µM) | relative viability (Metformin + Vorinostat; first compound 10 µM) | relative viability (Metformin + Vorinostat; first compound 31.62 µM) | relative viability (Metformin + Vorinostat; first compound 100 µM) | relative viability (Metformin + Vorinostat; first compound 316.23 µM) | relative viability (Metformin + Vorinostat; first compound 1000 µM) | relative viability (Apatinib + Dasatinib; first compound 0.08 µM) | relative viability (Apatinib + Dasatinib; first compound 0.253 µM) | relative viability (Apatinib + Dasatinib; first compound 0.8 µM) | relative viability (Apatinib + Dasatinib; first compound 2.53 µM) | relative viability (Apatinib + Dasatinib; first compound 8 µM)
LU99A | 0.514 | 0.589 | 0.467 | 0.43 | 0.354 | 1.01 | 1.01 | 0.843 | 0.895 | 0.774 | 0.417 | 0.579 | 0.411 | 0.397 | 0.479 | 0.526 | 0.565 | 0.523 | 0.486 | 0.416
EKVX | 0.816 | 0.752 | 0.713 | 0.589 | 0.57 | 0.352 | 0.291 | 0.339 | 0.309 | 0.298 | – | 0.67 | 0.655 | 0.644 | 0.762 | 0.603 | 0.621 | 0.478 | 0.361 | 0.325
NCI-H1437 | 0.854 | 0.928 | 0.71 | 0.554 | 0.534 | 0.583 | 0.584 | 0.524 | 0.505 | 0.46 | 1.1 | 1.34 | 0.993 | 0.961 | 1.01 | 0.28 | 0.417 | 0.373 | 0.266 | 0.157
A-427 | 0.861 | 0.852 | 0.855 | 0.866 | 0.853 | 0.604 | 0.583 | 0.533 | 0.575 | 0.618 | 0.848 | 0.863 | 0.827 | 0.819 | 0.776 | 0.706 | 0.66 | 0.798 | 0.671 | 0.575
SK-LU-1 | 0.905 | 0.778 | 0.776 | 0.722 | 0.554 | 0.724 | 0.782 | 0.671 | 0.667 | 0.675 | 0.723 | 0.645 | 0.759 | 0.667 | 0.766 | 0.182 | 0.207 | 0.184 | 0.167 | 0.175
NCI-H2405 | 1.21 | 1.15 | 1.06 | 0.951 | 1.03 | 0.83 | 0.854 | 0.711 | 0.712 | 0.776 | – | 0.991 | 1.03 | 1.02 | 0.587 | 0.215 | 0.207 | 0.202 | 0.159 | 0.192
LK-2 | 0.267 | 0.269 | 0.248 | 0.145 | 0.228 | 0.299 | 0.298 | 0.273 | 0.21 | 0.273 | 0.232 | 0.264 | 0.273 | 0.339 | 0.397 | 0.39 | 0.258 | 0.227 | 0.24 | 0.257
LOU-NH91 | 0.974 | 0.97 | 0.82 | 0.816 | 0.82 | 0.85 | 0.827 | 0.732 | 0.741 | 0.776 | 0.86 | 0.852 | 0.839 | 0.925 | 0.833 | 0.505 | 0.552 | 0.498 | 0.528 | 0.471
COR-L 105 | 1.09 | 0.795 | 0.872 | 0.782 | 0.805 | 0.706 | 0.716 | 0.631 | 0.711 | 0.632 | 0.795 | 0.807 | 0.895 | 0.848 | 0.495 | 0.357 | 0.349 | 0.351 | 0.3 | 0.269
NCI-H1650 | 0.564 | 0.559 | 0.513 | 0.412 | 0.489 | 0.495 | 0.55 | 0.416 | 0.64 | 0.589 | 0.492 | 0.675 | 0.799 | 0.529 | 0.52 | – | 0.346 | 0.341 | 0.23 | 0.262
H3255 | 0.768 | 0.737 | 0.764 | 0.74 | 0.794 | 0.707 | 0.553 | 0.578 | 0.542 | 0.517 | 0.627 | 0.921 | 0.758 | 0.811 | 0.929 | 0.356 | 0.326 | 0.344 | 0.255 | 0.366
NCI-H1993 | 0.804 | 0.726 | 0.948 | 0.788 | 0.727 | 0.604 | 0.623 | 0.519 | 0.559 | 0.544 | 0.585 | 0.6 | 0.646 | 0.608 | 0.921 | 0.63 | 0.663 | 0.558 | 0.538 | 0.503
LCLC-103H | 0.812 | 0.773 | 0.772 | 0.683 | 0.709 | 0.792 | 0.739 | 0.687 | 0.726 | 0.744 | 0.569 | 0.79 | 0.795 | 0.788 | 0.873 | 0.436 | 0.402 | 0.458 | 0.43 | 0.344
ChaGo-K-1 | 0.838 | 0.843 | 0.789 | 0.656 | 0.565 | 0.536 | 0.56 | 0.522 | 0.53 | 0.43 | 0.663 | 0.777 | 0.751 | 0.667 | 0.723 | 0.603 | 0.535 | 0.642 | 0.547 | 0.501
NCI-H441 | 0.891 | 0.673 | 0.827 | 0.809 | 0.574 | 0.229 | 0.233 | 0.248 | 0.285 | 0.444 | – | 0.513 | 0.69 | 0.51 | 0.866 | 0.646 | 0.486 | 0.511 | 0.566 | 0.449
ABC-1 | – | 1.2 | 1.07 | 1.04 | 1.22 | – | 1.04 | 1.19 | 1.21 | 0.895 | – | 0.953 | 1.1 | 1.08 | 0.332 | – | 0.631 | 0.492 | 0.509 | 0.484
NCI-H1651 | 0.583 | 0.522 | 0.528 | 0.48 | 0.577 | 0.609 | 0.53 | 0.611 | 0.593 | 0.41 | 0.505 | 0.652 | 0.568 | 0.614 | 0.608 | 0.386 | 0.492 | 0.387 | 0.251 | 0.365
